Experimental data: PubChem BioAssay (NCI)
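Step 1: Grow cells in 96-well plates. Step 2: Expose to compound for 48 hours at 5 concentrations. Step 3: Interpolate endpoints linearly; if unreached, use highest concentration. TGI denotes the concentration required for complete inhibition of growth.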

Columns and labels:
Assay in all cases: NCI-60 cell line screen, 48 h
[1] = test system: A498 renal
[2] = test system: A549 NSCLC
[3] = test system: ACHN renal
[4] = test system: HCT-116 colon
[5] = test system: IGROV1 ovarian
[6] = test system: K-562 leukemia
[7] = test system: OVCAR-8 ovarian
[8] = test system: SF-295 CNS
[9] = test system: SNB-75 CNS
[10] = test system: UACC-62 melanoma

SMILES	TGI [1] [µM]	TGI [2] [µM]	TGI [3] [µM]	TGI [4] [µM]	TGI [5] [µM]	TGI [6] [µM]	TGI [7] [µM]	TGI [8] [µM]	TGI [9] [µM]	TGI [10] [µM]
O=C1Cc2cc3ccccc3nc2-c2ccccc2N1	> 100	> 100	> 100	62.2	> 100	> 100	> 100	> 100	65.7	> 100
COc1cccc(NC(=O)CC(=O)NN)c1	> 100	> 100	> 100	> 100	> 100	> 100	> 100	> 100	> 100	> 100
CC(=O)c1csc2c1C(=O)c1ccccc1C2=O	> 100	4.06	4.57	7.85	6.42	> 100	7.11	3	3.11	3.73
CCOC(=O)[C@@]12C[C@](/C=C/OC)(O[Si](C)(C)C)[C@@]13c1cc(OC)c(OC)cc1CCN3C(=O)C2=O	> 100	> 100	> 100	> 100	> 100	> 100	> 100	> 100	> 100	> 100
COC(=O)CN1CCN(c2cccc3c2CCCC3)CC1	> 100	> 100	> 100	> 100	> 100	> 100	> 100	> 100	> 100	> 100
CC(C)c1cc(=O)[nH]c2cc(N)ccc12	> 100	> 100	> 100	> 100	> 100	> 100	> 100	> 100	> 100	> 100
CC1(C)N=C(C(N)=O)c2[nH]cnc2N1	> 100	> 100	> 100	> 100	> 100	> 100	> 100	> 100	> 100	> 100
Nc1nc(Cl)c2ncn(CCCC(c3ccccc3)P(=O)(O)O)c2n1 (stereo not given)	> 100	> 100	> 100	> 100	> 100	> 100	> 100	> 100	> 100	> 100
Cc1ccc(C2=CC(=O)/C(=C\C(=O)c3ccc(Br)cc3)O2)c(C)c1	39.4	48.4	12.3	19.8	40.4	16.4	19	> 54.2	28.2	22.7
C[N+](C)(CCNc1ccc(NCC[N+](C)(C)Cc2ccc([N+](=O)[O-])cc2)c2c1C(=O)c1c(O)ccc(O)c1C2=O)Cc1ccc([N+](=O)[O-])cc1	> 50	> 50	> 50	> 50	> 50	> 5	> 50	> 50	> 50	> 50
CC(=O)OC1CCn2c1nc1cc([N+](=O)[O-])c(C)cc12 (stereo not given)	> 100	> 100	> 100	> 100	> 100	> 100	> 100	> 100	> 100	> 100
COC(=O)c1ccccc1C1CN=NC12Cc1ccc(C)cc1C2=O (stereo not given)	> 100	> 100	> 100	> 100	> 100	> 100	> 100	> 100	> 100	> 100
NC(=S)NNCC(=O)CC(O)(C(F)(F)F)C(F)(F)Cl (stereo not given)	> 100	> 100	> 100	> 100	> 100	> 100	> 100	> 100	> 100	> 100
Nc1nc(N)c2nc(CN(C=O)c3ccc(C(=O)O)cc3)cnc2n1	> 79.9	> 100	> 100	> 100	> 100	> 100	> 100	> 100	> 100	> 100
Cc1cccc2c(=O)c3c(O)cc(O)cc3n(C)c12	98.7	> 100	> 100	> 100	> 100	> 100	> 100	> 100	> 100	> 100
O=C(C[N+]12CN3CN(CN(C3)C1)C2)c1ccc(-c2ccccc2)cc1	44.4	> 100	52.9	35.7	66.5	33.7	> 100	43.6	38.6	29.9
CCN(CC)c1c(C(C)(C)C)c(=O)n2ccsc2c1OC(C)=O	33.6	28.2	29.7	26.5	31.2	> 100	29.1	30.7	31	34.5
CCOC(=O)Cc1c(C(=O)OCC)[n+](=O)c2cc(Cl)c(Cl)cc2n1[O-]	6.14	3.72	3.38	7.27	2.35	5.65	6.2	13.5	4.63	5.45
O=C1c2cc3c(cc2NC(c2ccccc2F)C1O)OCO3 (stereo not given)	58.1	> 63.1	> 100	> 35.7	> 100	> 100	71.9	43.6	56.9	64
CC(C)(C)OC(=O)Cn1ncn(NC(=O)Cc2ccccc2)c1=S	> 10	> 10	> 10	> 10	> 10	> 10	> 10	> 10	> 10	> 10
COc1cc(/C=C(\C)[N+](=O)[O-])cc(OC)c1	25	61.5	30.3	31.2	17.6	5.52	29.7	53.6	31.8	28.7
